Like-named read-outs stand apart in the source and are kept apart here. Numbered stars: 1 amine (or outer) side, 2 acyl side, 3 side chain; on linkers, the order of the positions; unused ones are H or OH. Bridge positions count the residues as written; N and C are the ends. Side chains are listed from the residue outwards. Peptide text beside a SMILES is read from it. * marks the point of attachment. C20 diacid = O=C(O)CCCCCCCCCCCCCCCCCCC(=O)*; γGlu = O=C(O)[C@H](CCC(=O)[*:2])N[*:1]; AEEA = NCCOCCOCC(=O)O
Columns and labels:
[1] = target: T1, human calcitonin receptor (Homo sapiens, UniProt P30988); test: Assay (VII) binding to the human calcitonin receptor (SPA, 125I-Calcitonin); settings: read-out: hCTR bind IC50;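 also: cell membranes coupled to SPA beads, competitive displacement read by scintillation counting, IC50 derived from a one-site competition fit as a measure of receptor affinity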
T1 construct: expressed in transfected cells
T1 sequence (P30988 25-474): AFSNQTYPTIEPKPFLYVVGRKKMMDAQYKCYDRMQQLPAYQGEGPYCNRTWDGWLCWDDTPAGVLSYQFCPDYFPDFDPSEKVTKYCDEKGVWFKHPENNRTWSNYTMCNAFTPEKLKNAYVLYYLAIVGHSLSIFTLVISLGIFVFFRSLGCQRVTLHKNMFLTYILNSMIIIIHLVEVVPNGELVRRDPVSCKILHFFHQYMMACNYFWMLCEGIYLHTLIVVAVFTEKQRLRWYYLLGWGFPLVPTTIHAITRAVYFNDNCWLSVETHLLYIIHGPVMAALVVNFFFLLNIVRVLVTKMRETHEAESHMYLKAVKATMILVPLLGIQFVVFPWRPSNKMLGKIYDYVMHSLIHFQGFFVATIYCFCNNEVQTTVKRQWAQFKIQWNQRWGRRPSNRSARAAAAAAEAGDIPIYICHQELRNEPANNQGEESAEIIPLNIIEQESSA

human amylin receptor = target: T2, human amylin receptor (Homo sapiens, UniProt O60896+P30988); test: Assay (V) binding to the human amylin receptor (SPA, 125I-rat amylin); settings: for IC50: human amylin receptor membranes, SPA, read-out: hAmylin-R bind IC50
T2 construct: expressed in transfected cells
T2 sequence (P30988 25-474): T1 sequence (P30988 25-474)
T2 sequence (O60896 24-148 partner): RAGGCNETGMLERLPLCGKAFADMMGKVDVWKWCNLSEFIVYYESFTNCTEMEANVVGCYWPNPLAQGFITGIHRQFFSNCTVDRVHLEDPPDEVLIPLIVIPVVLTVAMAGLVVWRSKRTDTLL
In short: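 IC50, taken as receptor affinity, came from one-site binding competition analysis of scintillation proximity counts. Amylin 3(a)/CRE-luc cell membranes (35 ng/μL final) were mixed with SPA beads (0.05 mg/well) in 50 mM Hepes pH 7.4 containing CaCl2, MgCl2, 0.1% OA and 0.02% Tween20.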

[2] = target: T1, human calcitonin receptor; test: Assay (II)a functional assay, human calcitonin receptor (CRE luciferase, BHK cells);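 also: luminescence from a CRE-driven luciferase reporter, read by single photon counting after cells were exposed to test samples for 3 h at 37 °C under 5% CO2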; assay type: cell-based; settings: read-out: hCTR funct. EC50
[3] = target: T3, human amylin receptor (amylin 3(a) receptor: human calcitonin receptor + RAMP-3) (Homo sapiens, UniProt O60896+P30988); test: Assay (II)a functional assay, human amylin receptor (CRE luciferase, BHK cells); assay type: cell-based; settings: for EC50: read-out: hAmylin-R funct. EC50
T3 construct: expressed in transfected cells
T3 sequence (P30988 25-474): T1 sequence (P30988 25-474)
T3 sequence (O60896 24-148 partner): T2 sequence (O60896 24-148 partner)

[4] = functional assay, human amylin receptor
[5] = human binding ratio, included for comparison
[6] = Table 6, human functional selectivity (hCTR EC50 / hAmylin-R EC50)
[7] = Table 6a, human functional selectivity (hCTR EC50 / hAmylin-R EC50), at least 5
[8] = Table 6j, hCTR funct. EC50 / hAmylin-R funct. EC50
[9] = Table 6k, hCTR funct. EC50 / hAmylin-R funct. EC50
[10] = Table 6i, hCTR funct. EC50 / hAmylin-R funct. EC50
[11] = Table 6i, human amylin receptor functional

SMILES | IC50 [1] [nM] | IC50 (human amylin receptor) [nM] | EC50 [2] [nM] | EC50 [3, 4] [nM] | Ratio hCT/hAmylin binding (human amylin receptor; Table 7b, human calcitonin receptor binding IC50 divided by human amylin receptor binding IC50) | Ratio hCT/hAmylin binding (human amylin receptor; Table 7c, human calcitonin receptor binding IC50 divided by human amylin receptor binding IC50) | Ratio hCT/hAmylin binding (human amylin receptor; [5]) | Ratio hCT/hAmylin funct. [3, 6] | Ratio hCT/hAmylin funct. [3, 7] | Ratio hCT/hAmylin funct. [3, 8] | Ratio hCT/hAmylin funct. [3, 9] | EC50 ([3]; Table 6j, human amylin receptor functional) [nM] | Ratio hCT/hAmylin funct. [3, 10] | EC50 [3, 11] [nM]
CC[C@H](C)[C@H](NC(=O)[C@H](C)NC(=O)CNC(=O)[C@H](Cc1ccccc1)NC(=O)[C@H](CC(N)=O)NC(=O)[C@@H]1CCCN1C(=O)[C@H](CO)NC(=O)[C@H](CO)NC(=O)[C@H](Cc1c[nH]cn1)NC(=O)[C@H](CCCNC(=N)N)NC(=O)[C@H](CC(C)C)NC(=O)[C@H](Cc1ccccc1)NC(=O)[C@H](CCC(=O)O)NC(=O)[C@H](C)NC(=O)[C@H](CC(C)C)NC(=O)[C@H](CCCNC(=N)N)NC(=O)[C@H](CCC(N)=O)NC(=O)[C@@H](NC(=O)[C@H](C)NC(=O)[C@@H]1CSSC[C@H](NC(=O)[C@@H](N)CCCCNC(=O)CC[C@H](NC(=O)CC[C@H](NC(=O)CCCCCCCCCCCCCCCCCCC(=O)O)C(=O)O)C(=O)O)C(=O)N[C@@H](CC(N)=O)C(=O)N[C@@H]([C@@H](C)O)C(=O)N[C@@H](C)C(=O)N[C@@H]([C@@H](C)O)C(=O)N1)[C@@H](C)O)C(=O)N1CCC[C@H]1C(=O)N[C@@H](CO)C(=O)N[C@@H](CO)C(=O)N[C@H](C(=O)N[C@@H](CC(N)=O)C(=O)N[C@H](C(=O)NCC(=O)N[C@@H](Cc1c[nH]cn1)C(=O)N[C@@H](CCC(=O)O)C(=O)N[C@H](C(=O)N[C@@H](Cc1ccc(O)cc1)C(N)=O)[C@@H](C)O)C(C)C)[C@@H](C)O [Example 104] (H-K([γGlu-γGlu-C20 diacid])CNTATCATQRLAEFLRHSSPNFGAIPSSTNVGHETY-NH2; disulfide 2-7) | 15.2 | 0.525 | 7.05 | 0.445 |  |  |  |  |  |  |  |  |  | 
CC[C@H](C)[C@H](NC(=O)[C@H](C)NC(=O)CNC(=O)[C@H](Cc1ccccc1)NC(=O)[C@H](CC(N)=O)NC(=O)[C@@H]1CCCN1C(=O)[C@H](CO)NC(=O)[C@H](CO)NC(=O)[C@H](Cc1c[nH]cn1)NC(=O)[C@H](CCCNC(=N)N)NC(=O)[C@H](CC(C)C)NC(=O)[C@H](Cc1ccccc1)NC(=O)[C@H](CC(N)=O)NC(=O)[C@H](C)NC(=O)[C@H](CC(C)C)NC(=O)[C@H](CCCNC(=N)N)NC(=O)[C@H](CCC(N)=O)NC(=O)[C@@H](NC(=O)[C@H](C)NC(=O)[C@@H]1CSSC[C@H](NC(=O)[C@H](CCCCN)NC(=O)CC[C@H](NC(=O)CCCCCCCCCCCCCCCCCCC(=O)O)C(=O)O)C(=O)N[C@@H](CC(N)=O)C(=O)N[C@@H]([C@@H](C)O)C(=O)N[C@@H](C)C(=O)N[C@@H]([C@@H](C)O)C(=O)N1)[C@@H](C)O)C(=O)N1CCC[C@H]1C(=O)N[C@@H](CO)C(=O)N[C@@H](CO)C(=O)N[C@H](C(=O)N[C@@H](CC(N)=O)C(=O)N[C@H](C(=O)NCC(=O)N[C@@H](CO)C(=O)N[C@@H](CCC(=O)O)C(=O)N[C@H](C(=O)N[C@@H](Cc1ccc(O)cc1)C(N)=O)[C@@H](C)O)C(C)C)[C@@H](C)O [Example 23] | 21.8 | 0.871 | 3.02 | 0.34 | 25.0 | 25.0 | 25.0 | 8.9 | 8.9 | 8.9 | 8.9 |  |  | 
CC[C@H](C)[C@H](NC(=O)[C@H](C)NC(=O)CNC(=O)[C@H](Cc1ccccc1)NC(=O)[C@H](CC(N)=O)NC(=O)[C@@H]1CCCN1C(=O)[C@H](CO)NC(=O)[C@H](CO)NC(=O)[C@H](Cc1c[nH]cn1)NC(=O)[C@H](CCCNC(=N)N)NC(=O)[C@H](CC(C)C)NC(=O)[C@H](Cc1ccccc1)NC(=O)[C@H](CC(N)=O)NC(=O)[C@H](C)NC(=O)[C@H](CC(C)C)NC(=O)[C@H](CCCNC(=N)N)NC(=O)[C@H](CCC(N)=O)NC(=O)[C@@H](NC(=O)[C@H](C)NC(=O)[C@@H]1CSSC[C@H](NC(=O)[C@@H](N)CCCCNC(=O)COCCOCCNC(=O)CC[C@H](NC(=O)CCCCCCCCCCCCCCCCCCC(=O)O)C(=O)O)C(=O)N[C@@H](CC(N)=O)C(=O)N[C@@H]([C@@H](C)O)C(=O)N[C@@H](C)C(=O)N[C@@H]([C@@H](C)O)C(=O)N1)[C@@H](C)O)C(=O)N1CCC[C@H]1C(=O)N1CCC[C@H]1C(=O)N[C@@H](CO)C(=O)N[C@H](C(=O)N1CCC[C@H]1C(=O)N[C@H](C(=O)NCC(=O)N[C@@H](CO)C(=O)N[C@@H](CC(N)=O)C(=O)N[C@H](C(=O)N[C@@H](Cc1ccc(O)cc1)C(N)=O)[C@@H](C)O)C(C)C)[C@@H](C)O [Example 53] (H-K([AEEA-γGlu-C20 diacid])CNTATCATQRLANFLRHSSPNFGAIPPSTPVGSNTY-NH2; disulfide 2-7) | 5.38 | 0.052 | 0.625 |  |  |  |  | 9.8 | 9.8 | 9.8 | 9.8 | 0.064 |  | 
CC[C@H](C)[C@H](NC(=O)[C@H](C)NC(=O)CNC(=O)[C@H](Cc1ccccc1)NC(=O)[C@H](CC(N)=O)NC(=O)[C@@H]1CCCN1C(=O)[C@H](CO)NC(=O)[C@H](CO)NC(=O)[C@H](Cc1c[nH]cn1)NC(=O)[C@H](CCCNC(=N)N)NC(=O)[C@H](CC(C)C)NC(=O)[C@H](Cc1ccccc1)NC(=O)[C@H](CCC(=O)O)NC(=O)[C@H](C)NC(=O)[C@H](CC(C)C)NC(=O)[C@H](CCCNC(=N)N)NC(=O)[C@H](CCC(N)=O)NC(=O)[C@@H](NC(=O)[C@H](C)NC(=O)[C@@H]1CSSC[C@H](NC(=O)[C@H](CCCCN)NC(=O)CC[C@H](NC(=O)CCCCCCCCCCCCCCCCCCC(=O)O)C(=O)O)C(=O)N[C@@H](CC(N)=O)C(=O)N[C@@H]([C@@H](C)O)C(=O)N[C@@H](C)C(=O)N[C@@H]([C@@H](C)O)C(=O)N1)[C@@H](C)O)C(=O)N1CCC[C@H]1C(=O)N[C@@H](CO)C(=O)N[C@@H](CO)C(=O)N[C@H](C(=O)N[C@@H](CC(N)=O)C(=O)N[C@H](C(=O)NCC(=O)N[C@@H](CCCCN)C(=O)N[C@@H](CC(N)=O)C(=O)N[C@H](C(=O)N[C@@H](Cc1ccc(O)cc1)C(N)=O)[C@@H](C)O)C(C)C)[C@@H](C)O [Example 36] ({C20 diacid-γGlu}-KCNTATCATQRLAEFLRHSSPNFGAIPSSTNVGKNTY-NH2; disulfide 2-7) | 6.31 | 0.403 | 1.28 |  |  |  |  | 6.8 | 6.8 | 6.8 | 6.8 |  | 6.8 | 0.189
CC[C@H](C)[C@H](NC(=O)[C@H](C)NC(=O)CNC(=O)[C@H](Cc1ccccc1)NC(=O)[C@H](CC(N)=O)NC(=O)[C@@H]1CCCN1C(=O)[C@H](CO)NC(=O)[C@H](CO)NC(=O)[C@H](Cc1c[nH]cn1)NC(=O)[C@H](CCCNC(=N)N)NC(=O)[C@H](CC(C)C)NC(=O)[C@H](Cc1ccccc1)NC(=O)[C@H](CCC(=O)O)NC(=O)[C@H](C)NC(=O)[C@H](CC(C)C)NC(=O)[C@H](CCCNC(=N)N)NC(=O)[C@H](CCC(N)=O)NC(=O)[C@@H](NC(=O)[C@H](C)NC(=O)[C@@H]1CSSC[C@H](NC(=O)[C@H](CCCCN)NC(=O)CC[C@H](NC(=O)CCCCCCCCCCCCCCCCCCC(=O)O)C(=O)O)C(=O)N[C@@H](CC(N)=O)C(=O)N[C@@H]([C@@H](C)O)C(=O)N[C@@H](C)C(=O)N[C@@H]([C@@H](C)O)C(=O)N1)[C@@H](C)O)C(=O)N1CCC[C@H]1C(=O)N[C@@H](CO)C(=O)N[C@@H](CO)C(=O)N[C@H](C(=O)N[C@@H](CC(N)=O)C(=O)N[C@H](C(=O)NCC(=O)N[C@@H](CO)C(=O)N[C@@H](CC(N)=O)C(=O)N[C@H](C(=O)N[C@@H](Cc1ccc(O)cc1)C(N)=O)[C@@H](C)O)C(C)C)[C@@H](C)O [Example 9] | 1.14 | 0.143 | 1.29 |  |  |  | 8.0 | 7.4 | 7.4 | 7.4 |  |  | 7.4 | 0.175

From US8575091B1, “Amylin analogues and pharmaceutical compositions thereof” (Novo Nordisk A/S, priority 2012, dated 2013)
